For series [1], the system named is Staphylococcus aureus Newman. Kind of series: Infection of mice by Staphylococcus aureus Newman (body weight, CFU from kidney). It is filed as in vivo. The note with it: FIG. 6; mice infected with Staphylococcus aureus Newman.
The next series deals with SARS-CoV-2. Kind of series: SARS-CoV-2 virus production in infected CaCo2 cells (fluorescence or luminescence normalized to Hoechst). The note with it: for Fluorescence ratio: added substances at the fixed concentration indicated, CaCo2 cells, untreated = 0.2; for SARS-CoV-2 viral protein production in CaCo2 cells - effect of each substance at 10 μM (% of untreated): 10 μM in medium, low values indicate inhibition of viral protein production.

The subject of a further series is Staphylococcus carnosus. Kind of series: Inhibition of growth of Staphylococcus carnosus (optical density of culture). It is filed as cell-based. The note with it: after 9-20 h, no compound 0.887. Here is the method:
(§1) Activity of substances in the inhibition of growth of bacteria. Bacteria including the species Escherichia coli, Bacillus pumilus, Salmonella sp., Micrococcus luteus and Staphylococcus carnosus are cultured in appropriate media (Luria broth for all except S. canosus). Overnight cultures are mixed with fresh medium to reach an optical density at […] of ca. 0.1 AU. These cultures are mixed with solutions of substances to be tested at concentrations ranging from 100 μM to 0.05 μM in a microtitre plate. The growth of the culture is monitored by measuring the optical density at various times after the addition of the inhibitor. Reduction in the rate of increase in optical density corresponds to an inhibition of bacterial growth. In the following tables, the activity of various of the test substances may be observed by reductions in optical density relative to untreated control cultures.

Another series relates to Salmonella typhimurium. Kind of series: Inhibition of growth of Salmonella typhimurium (optical density of culture). It is filed as cell-based. The note with it: after 9-20 h, no compound 0.943. How it is done: as §1

Consider `CC[C@H]1OC(=O)[C@H](C)[C@@H](O[C@H]2C[C@@](C)(OC)[C@@H](O)[C@H](C)O2)[C@H](C)[C@@H](O[C@@H]2O[C@H](C)C[C@H](N(C)C)[C@H]2O)[C@](C)(O)C[C@@H](C)CN(C)[C@H](C)[C@@H](O)[C@]1(C)O` [Azithromycin, reference compound], for which the “Bacteria quantified as CFU recovered from a standard sample of kidney” value in series [1] is given as “decreases recovered bacteria in a dose responsive manner”.

Take `CN(C)C(=O)COC(=O)Cc1ccc(OC(=O)c2ccc(NC(=N)N)cc2)cc1` [Camostat, reference compound]: the Fluorescence ratio with SARS-CoV-2 (0.312 μM of the (first named) compound) is reported as 0.09; with SARS-CoV-2 (0.625 μM of the (first named) compound), 0.08; in the series on SARS-CoV-2 (1.25 μM of the (first named) compound), 0.01; in the series with SARS-CoV-2 (2.5 μM of the (first named) compound) it was 0.03; in the series on SARS-CoV-2 (5 μM of the (first named) compound), 0.07; in the series on SARS-CoV-2 (10 μM of the (first named) compound) it was 0.02. In the series with SARS-CoV-2, the “SARS-CoV-2 viral protein production in CaCo2 cells - effect of each substance at 10 μM (% of untreated)” value is on record as 2 % of untreated.

Regarding `CC[C@H]1OC(=O)[C@H](C)[C@@H](O[C@@H]2O[C@@H](C)[C@@H](OC(C)=O)[C@@H](OC(C)=O)[C@@H]2OC(C)=O)[C@H](C)[C@@H](O[C@@H]2O[C@H](C)C[C@H](N(C)C)[C@H]2O)[C@](C)(O)C[C@@H](C)CN(C)[C@H](C)[C@@H](O)[C@]1(C)O` [Compound A-23, 3-descladinosyl-3-triacetylfucosylazithromycin], the “SARS-CoV-2 viral protein production in CaCo2 cells - effect of each substance at 10 μM (% of untreated)” value with SARS-CoV-2 was 44 % of untreated.

`CCCN(CCO)CC(O)CN(C)[C@H]1C[C@@H](C)O[C@@H](O[C@@H]2[C@@H](C)[C@H](O[C@H]3C[C@@](C)(OC)[C@@H](O)[C@H](C)O3)[C@@H](C)C(=O)O[C@H](CC)[C@@](C)(O)[C@H](O)[C@@H](C)N(C)C[C@H](C)C[C@@]2(C)O)[C@@H]1O` (stereo partly drawn) [Compound A-24, (2R,3S,4R,5R,8R,10R,11R,12S,13S, 14R)-2-ethyl-3,4,10-trihydroxy-11-(((2S,3R,4R,6R)-3-hydroxy-4-((2-hydroxy-3-((2-hydroxyethyl)(propyl)amino)propyl) (methyl)amino)-6-methyltetrahydro-2H-pyran-2-yl)oxy)-13-(((2R,4R,58,6S)-5-hydroxy-4-methoxy-4,6-dimethyltetrahydro-2H-pyran-2-yl)oxy)-3,5,6,8,10,12,14-heptamethyl-1-oxa-6-azacyclopentadecan-15-one]: the “SARS-CoV-2 viral protein production in CaCo2 cells - effect of each substance at 10 μM (% of untreated)” value in the series with SARS-CoV-2 is on record as 35 % of untreated.

On to `CC[C@H]1OC(=O)[C@H](C)[C@@H](O)[C@H](C)[C@@H](O[C@@H]2O[C@H](C)C[C@H](NC)[C@H]2O)[C@](C)(O)C[C@@H](C)CN(C)[C@H](C)[C@@H](O)[C@]1(C)O` [Compound A-25, (2R,3S,4R,5R,8R,10R,11R,12S,13S, 14R)-2-ethyl-3,4,10,13-tetrahydroxy-11-(((2S,3R,4S,6R)-3-hydroxy-6-methyl-4-(methylamino)tetrahydro-2H-pyran-2-yl)oxy)-3,5,6,8,10,12,14-heptamethyl-1-oxa-6-azacyclopentadecan-15-one], for which, in the series on SARS-CoV-2, the “SARS-CoV-2 viral protein production in CaCo2 cells - effect of each substance at 10 μM (% of untreated)” value is 34 % of untreated.

In the case of `CC[C@H]1OC(=O)[C@H](C)[C@@H](O[C@H]2C[C@@](C)(OC)[C@@H](O[N+](=O)[O-])[C@H](C)O2)[C@H](C)[C@@H](O[C@@H]2O[C@H](C)C[C@H](N(C)C)[C@H]2O)[C@](C)(O)C[C@@H](C)CN(C)[C@H](C)[C@@H](O)[C@]1(C)O` [Compound E-1, (2S,3S,4R,6R)-6-(((2R,3S,4R,5R,8R,10R,11R,12S,13S, 14R)-11-(((2S,3R,4S,6R)-4-(dimethylamino)-3-hydroxy-6-methyltetrahydro-2H-pyran-2-yl)oxy)-2-ethyl-3,4,10-trihydroxy-3,5,6,8,10,12,14-heptamethyl-15-oxo-1-oxa-6-azacyclopentadecan-13-yl)oxy)-4-methoxy-2,4-dimethyltetrahydro-2H-pyran-3-yl nitrate], the “Absorbance of culture medium at 600 nm” value in the series with Staphylococcus carnosus (0.8 μM) was 0.902; in the series with Staphylococcus carnosus (2 μM), 0.856; with Staphylococcus carnosus (3 μM) it was 0.864; with Staphylococcus carnosus (6 μM), 0.625; in the series with Staphylococcus carnosus (13 μM), 0.068; in the series on Staphylococcus carnosus (25 μM), 0.078. Moreover, the “Absorbance of culture medium at 600 nm” value is on record as 0.096 in the series on Staphylococcus carnosus (50 μM); 0.157 in the series with Staphylococcus carnosus (100 μM); 0.722 in the series on Salmonella typhimurium (0.8 μM); 0.761 in the series with Salmonella typhimurium (2 μM); 0.711 with Salmonella typhimurium (3 μM); 0.741 with Salmonella typhimurium (6 μM). The “Absorbance of culture medium at 600 nm” value with Salmonella typhimurium (13 μM) is 0.722; in the series on Salmonella typhimurium (25 μM), 0.736; in the series with Salmonella typhimurium (50 μM), 0.484; with Salmonella typhimurium (100 μM) it was 0.557.

As to `CC[C@H]1OC(=O)[C@H](C)[C@@H](O[C@H]2C[C@@](C)(OC)[C@@H](O)[C@H](C)O2)[C@H](C)[C@@H](O[C@@H]2O[C@H](C)CC(N(C)C)[C@H]2O)[C@](C)(O)C[C@@H](C)CN(C)[C@H](C)[C@@H](O[N+](=O)[O-])[C@]1(C)O` (some centres unmarked) [Compound E-10], the “Absorbance of culture medium at 600 nm” value in the series on Staphylococcus carnosus (0.8 μM) turned out to be 0.862; in the series on Staphylococcus carnosus (2 μM), 0.826; with Staphylococcus carnosus (3 μM) it was 0.768; in the series on Staphylococcus carnosus (6 μM), 0.699; in the series with Staphylococcus carnosus (13 μM), 0.702; in the series on Staphylococcus carnosus (25 μM) it was 0.595. For the same compound, the “Absorbance of culture medium at 600 nm” value with Staphylococcus carnosus (50 μM) stood at 0.433; with Staphylococcus carnosus (100 μM), 0.576; with Salmonella typhimurium (0.8 μM), 0.334; with Salmonella typhimurium (2 μM), 0.361; in the series on Salmonella typhimurium (3 μM), 0.402; in the series with Salmonella typhimurium (6 μM), 0.382. In addition, the “Absorbance of culture medium at 600 nm” value in the series on Salmonella typhimurium (13 μM) was 0.399; in the series on Salmonella typhimurium (25 μM) it was 0.390; with Salmonella typhimurium (50 μM), 0.315; in the series on Salmonella typhimurium (100 μM) it was 0.280.

Take `CC[C@H]1OC(=O)[C@H](C)[C@@H](O[C@H]2C[C@@](C)(OC)[C@@H](O)[C@H](C)O2)[C@H](C)[C@@H](O[C@@H]2O[C@H](C)CC(N(C)C)[C@H]2O[N+](=O)[O-])[C@](C)(O)C[C@@H](C)CN(C)[C@H](C)[C@@H](OC)[C@]1(C)O` (some centres unmarked) [Compound E-11]: the “Absorbance of culture medium at 600 nm” value with Staphylococcus carnosus (0.8 μM) is 0.941; in the series with Staphylococcus carnosus (2 μM), 0.918; in the series on Staphylococcus carnosus (3 μM) it was 0.890; in the series with Staphylococcus carnosus (6 μM), 0.887; with Staphylococcus carnosus (13 μM), 0.822; in the series with Staphylococcus carnosus (25 μM) it was 0.819. In addition, the “Absorbance of culture medium at 600 nm” value in the series with Staphylococcus carnosus (50 μM) came to 0.574; in the series with Staphylococcus carnosus (100 μM), 0.641; with Salmonella typhimurium (0.8 μM) it was 0.555; with Salmonella typhimurium (2 μM), 0.587; with Salmonella typhimurium (3 μM) it was 0.623; in the series on Salmonella typhimurium (6 μM) it was 0.627. In addition, the “Absorbance of culture medium at 600 nm” value in the series on Salmonella typhimurium (13 μM) was 0.633; with Salmonella typhimurium (25 μM), 0.697; in the series on Salmonella typhimurium (50 μM) it was 0.650; in the series on Salmonella typhimurium (100 μM), 0.562. Moreover, the “SARS-CoV-2 viral protein production in CaCo2 cells - effect of each substance at 10 μM (% of untreated)” value in the series with SARS-CoV-2 is on record as 32 % of untreated.

With `CCC(=O)O[C@@H]1[C@@H](C)N(C)C[C@H](C)C[C@@](C)(O)[C@H](O[C@@H]2O[C@H](C)CC(N(C)C)[C@H]2O)[C@@H](C)[C@H](O[C@H]2C[C@@](C)(OC)[C@@H](O)[C@H](C)O2)[C@@H](C)C(=O)O[C@H](CC)[C@@]1(C)O` (some centres unmarked) [Compound E-18], the “SARS-CoV-2 viral protein production in CaCo2 cells - effect of each substance at 10 μM (% of untreated)” value in the series on SARS-CoV-2 is recorded as 49 % of untreated.

Take `CCCC(=O)O[C@@H]1C(N(C)C)C[C@@H](C)O[C@H]1O[C@@H]1[C@@H](C)[C@H](O[C@H]2C[C@@](C)(OC)[C@@H](O)[C@H](C)O2)[C@@H](C)C(=O)O[C@H](CC)[C@@](C)(O)[C@H](O)[C@@H](C)N(C)C[C@H](C)C[C@@]1(C)O` (some centres unmarked) [Compound E-19]: in the series with SARS-CoV-2, the “SARS-CoV-2 viral protein production in CaCo2 cells - effect of each substance at 10 μM (% of untreated)” value is given as 34 % of untreated.

These data come from patent US20230131943A1, “ANTI-INFECTIVE AND ANTI-VIRAL COMPOUNDS AND COMPOSITIONS” (priority 2020, published 2023).
